Source: PubChem BioAssay (NCI)
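A five-concentration, 48-hour dose response in 96-well plates underlies each endpoint, interpolated linearly between surrounding concentrations. Here, GI50 denotes the concentration required for 50% inhibition of growth. Definition used: TGI = concentration required for complete inhibition of growth.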

Assays:
Assay in all cases: NCI tumour cell line growth inhibition, 48 h
BT-549 breast = tested on: BT-549 breast
DU-145 prostate = tested on: DU-145 prostate
HS 578T breast = tested on: HS 578T breast
NCI/ADR-RES ovarian = tested on: NCI/ADR-RES ovarian
T-47D breast = tested on: T-47D breast
MDA-MB-435 = tested on: MDA-MB-435
DLD-1 colon = tested on: DLD-1 colon
DMS 114 small cell lung = tested on: DMS 114 small cell lung
KM20L2 colon = tested on: KM20L2 colon

Structure (SMILES)	GI50 (BT-549 breast) [µM]	TGI (BT-549 breast) [µM]	GI50 (DU-145 prostate) [µM]	TGI (DU-145 prostate) [µM]	GI50 (HS 578T breast) [nM]	TGI (HS 578T breast) [µM]	GI50 (NCI/ADR-RES ovarian) [nM]	TGI (NCI/ADR-RES ovarian) [µM]	GI50 (T-47D breast) [nM]	TGI (T-47D breast) [µM]	GI50 (MDA-MB-435) [µM]	TGI (MDA-MB-435) [µM]	TGI (DLD-1 colon) [µM]	TGI (DMS 114 small cell lung) [µM]	TGI (KM20L2 colon) [µM]
COC(=O)C1=C(C(=O)OC)C23C=C(C)C1C2=C(C)C1(CC1)[C@@](C)(O)C3=O (stereo partly specified)	0.404	3.3	0.197	> 100	1370	7.61	303	4.24	515	6.4					
Cn1cc(C2=C(c3cn(CCN)c4ccccc34)C(=O)NC2=O)c2ccccc21	7.82	> 23.8	8.63	> 25	4320	20.2	10700	> 25	5320	14.7	3.81	19.4			
COC1=CC(c2ccc[nH]2)=N/C1=C\c1ccc[nH]1	0.145	5.71	0.163	13.3	292	3.56	304	13.8	151	1.77	0.0737	4.24			
O=C(/C=C\c1ccc(Cl)cc1Cl)c1cccs1				44.9		75.3		> 100		55.7		36.2			
COc1cc(-c2cc(-c3nc4ccc(Cl)cc4[nH]3)[nH]n2)cc(OC)c1OC	2.54	8.35	3.27	13.4	3580	45.5			1580	4.54	3.3	12.7			
Nc1c(C(=O)Nc2ccccc2Cl)sc2nc3c(cc12)CCCCCC3	3.64	29.1	7.84	> 100	2900	14.6	2820	25.4	3880	17.2	0.275	1.1			
NCc1nnn(Cc2ccccc2)c1N		> 100		> 100		> 100		> 100		> 100		> 100			
N#Cc1ccnc(N2C(=O)CC[C@H]2C(=O)N(c2cncc(F)c2)[C@H](C(=O)NC2CC(F)(F)C2)c2ccccc2Cl)c1	> 100	> 100	82.5	> 100	99600	> 100	> 100000	> 100	> 100000	> 100	64	> 100			
CN(C)CCCc1c[nH]c2ccccc12		> 100		> 100		> 100		> 100		> 100		> 100			
COc1ccccc1CNCCCN1C(=O)c2ccc3c4c(ccc(c24)C1=O)C(=O)N(CCCNCCCN)C3=O	1.44	3.81	0.63	2.39	1200	5.82	1160	5.71	791	3.08	0.57	2.72			
Cc1ccc(S(=O)(=O)N2CCc3ccc(O)c4c3C2Cc2cc(Cl)ccc2-4)cc1 (stereo unspecified)	1.95	9.66	0.912	2.4	889	6.68	819	2.27	1760	19.7	0.635	1.45			
CCC(C)C(NC(=O)C1CCCN1C(=O)C(NC(=O)C(C)N)C(C)C)C(N)=O (stereo unspecified)	> 100	> 100	> 100	> 100	> 100000	> 100			> 100000	> 100	> 100	> 100			
COc1ccc(-c2nc(-c3nc4ccc(OC)cc4[nH]3)cc3c2[nH]c2ccccc23)cc1	7.1	> 100	2.06	> 100	2850	> 100	2100	> 100	2270	> 100	4.31	> 100			
COP1(=O)Oc2ccccc2C(=O)C(C(F)(F)F)(C(F)(F)F)O1 (stereo unspecified)													> 100	> 100	> 100
COc1ccc(C2=NN(C(C)=O)C(c3cn(-c4ccccc4)nc3-c3ccc(Cl)cc3)C2)cc1 (stereo unspecified)	> 100	> 100	> 100	> 100	4880	> 100	> 100000	> 100	> 100000	> 100	> 100	> 100			
COc1cc2nc(Nc3cccc(F)c3)nc(Nc3cc(C)[nH]n3)c2cc1OC	1.68	3.2	1.64	3	1860	4.01	1600	3.64	1360	4.05	1.63	3.16			
COc1ccc(NC(=O)c2sc3nc(C)c(C(O)c4ccccc4)cc3c2N)cc1 (stereo unspecified)	6.13	51.6	3.21	> 100	1730	6.86	2550	9.03	3360	98.3	0.291	0.971			
Nc1ncnc2c1ncn2C1OC(CO)=CC1O (stereo unspecified)				> 37.5		> 37.5		> 37.5		> 37.5		> 37.5			
Cc1ccc(C)c(-c2csc(Nc3ccc(C)c(C)c3)n2)c1	> 100	> 100	> 100	> 100	30600	> 100	> 100000	> 100	> 100000	> 100	> 100	> 100			
C[C@@H]1C=C2C(=O)O[C@@H]3CC[C@H](C1)[C@]23O	4.4	17.3	2.14	5.78	12700	> 100	11900	95.8	3020	15.1	3.39	13.7			
COc1ccc2c(c1)CCC1C2CC[C@]2(C)/C(=N/OC(=O)Cc3ccccc3)CCC12 (stereo partly specified)	24.7	49.4	28.6	69.2	28600	70	20900	39.8	19500	52.2	16.7	30.5			
